According to article PMC7156458, “Synthetic biology based construction of biological activity-related library of fungal decalin-containing diterpenoid pyrones” (Nature Communications, 2020):
Several values for one entry are separate records, joined by “and”; a condition that tells them apart may be missing. Equal values may be shown once.

Tests used:
[1] = system: hepatitis B virus (HBV), measles virus (MV), Epstein-Barr virus (EBV), herpes simplex virus (HSV); test: preliminary anti-viral screening (other viruses); type: cell-based
Description: We examined the inhibitory activities of DDPs against various species of bacteria (both gram-negative and gram-positive bacteria), fungi and viruses. […] In contrast, preliminary screening of the DDPs for anti-viral agents with hepatitis B virus (HBV), measles virus (MV), Epstein-Barr virus (EBV), herpes simplex virus (HSV) and human immunodeficiency virus-1 (HIV-1) indicated their selective inhibition of HIV.

SF-295 = test: cells; set-up: species or system JFCR39 human cancer cell lines; JFCR39 panel growth inhibition, sulforhodamine B total protein after 48 h; conditions: Homo sapiens, SF-295, 48 h
Method in brief: (§1)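 Human cancer lines from the JFCR39 panel were cultured in RPMI-1640 with 5% FBS and 1 µg mL-1 kanamycin at 37°C, 5% CO2. Cells were exposed to compound for 48 hours, and growth was measured as total cellular protein by sulforhodamine B staining; GI50 from duplicate assays.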

HBC-4 = test: cells; set-up: species or system JFCR39 human cancer cell lines; JFCR39 panel growth inhibition, sulforhodamine B total protein after 48 h; conditions: HBC4, 48 h
Method in brief: as §1

MKN45 = test: cells; set-up: species or system JFCR39 human cancer cell lines; JFCR39 panel growth inhibition, sulforhodamine B total protein after 48 h; conditions: Homo sapiens, MKN-45, 48 h
Method in brief: as §1

MKN74 = test: cells; set-up: species or system JFCR39 human cancer cell lines; JFCR39 panel growth inhibition, sulforhodamine B total protein after 48 h; conditions: Homo sapiens, MKN-74, 48 h
Method in brief: as §1

PC-3 = test: cells; set-up: species or system JFCR39 human cancer cell lines; JFCR39 panel growth inhibition, sulforhodamine B total protein after 48 h; conditions: Homo sapiens, PC-3, 48 h
Method in brief: as §1

KM-12 = test: cells; set-up: species or system JFCR39 human cancer cell lines; JFCR39 panel growth inhibition, sulforhodamine B total protein after 48 h; conditions: Homo sapiens, KM12, 48 h
Method in brief: as §1

RXF-631L = test: cells; set-up: species or system JFCR39 human cancer cell lines; JFCR39 panel growth inhibition, sulforhodamine B total protein after 48 h; conditions: RXF-631L, 48 h
Method in brief: as §1

NCI-H226 = test: cells; set-up: species or system JFCR39 human cancer cell lines; JFCR39 panel growth inhibition, sulforhodamine B total protein after 48 h; conditions: Homo sapiens, NCI-H226, 48 h
Method in brief: as §1

A549 = test: cells; set-up: species or system JFCR39 human cancer cell lines; JFCR39 panel growth inhibition, sulforhodamine B total protein after 48 h; conditions: Homo sapiens, A549, 48 h
Method in brief: as §1

MKN-A = test: cells; set-up: species or system JFCR39 human cancer cell lines; JFCR39 panel growth inhibition, sulforhodamine B total protein after 48 h; conditions: 48 h
Method in brief: as §1

HCT-116 = test: cells; set-up: species or system JFCR39 human cancer cell lines; JFCR39 panel growth inhibition, sulforhodamine B total protein after 48 h; conditions: Homo sapiens, HCT-116, 48 h
Method in brief: as §1

MCF-7 cells = test: mammosphere formation assay; type: cell-based, human; conditions: MCF-7, 5 μM, 7 days
Protocol: We also evaluated antiproliferative activity against cancer stem cells (CSCs), which are a small sub-population in tumour bulk identified in most cancer cells and clinical samples[52]. CSCs have been a major problem in cancer therapy because they are responsible for recurrence, metastasis and drug resistance to chemotherapeutic agents that affect proliferative cells[53]–[56]. Anti-CSC activity was evaluated by the inhibition of sphere-forming ability, a well-studied method to enrich the CSC-like population, and selective cytotoxicity against one of the most reliable CSC markers, aldehyde dehydrogenase (ALDH)-positive cells. […] Low-toxicity 16 was also added as a negative control. […] We next evaluated the three DDPs that inhibited mammosphere formations against ALDH-positive cells, a functional marker for breast CSCs. MCF-7 cells were treated with 1 μM of 11, 12 or 22, and the ALDH-positive cell population was analysed by using a fluorescence activated cell sorter (Supplementary Fig. 46b). […] Thus, for the first time, we successfully found DDPs with potent antiproliferative effects on the CSC-like population in MCF-7 cells, which may lead to new anti-CSC drugs.
Fig. 5 DDPs show anti-CSC activity in breast cancer cell line MCF-7. a Effect of DDPs on mammosphere formation. After the cells were cultured in the presence of 5 μM DDPs for 7 days, the number of mammospheres was microscopically counted and the percentage of mammosphere-forming cells was determined as mammosphere-forming efficiency (MFE; %). Data represent mean ± s.d. from three independent replicate experiments. P-values were calculated by a two-sided unpaired Student’s t-test, compared with control. b Micrographs show representative images of mammosphere formation from three independent replicate experiments using compound 11, 12, 16, 22. The scale bar, […]. c Effect of DDPs (1 μM, 3 days) on ALDH-positive cells in MCF-7 cells. Data represent mean ± s.d. from three independent replicate experiments. P-values were calculated by a two-sided unpaired Student’s t-test, compared with control. d Dose-dependent effect of compound 12 on ALDH-positive cells in MCF-7 cells. Data represent mean ± s.d. from three independent replicate experiments. P-values were calculated by a two-sided unpaired Student’s t-test. Source data underlying Fig. 5a, c, d are provided in a Source Data file.

`C=C1CC[C@H]2[C@]3(C)C[C@@H](C=C(C)C)O[C@H]3CC[C@]2(C)[C@@H]1Cc1c(OC)oc(CO)c(C)c1=O` [Compound 17] was tested, and the “effect on other viruses” value [1] was “without affecting other viruses”, the GI50 (SF-295) was 10.7 µM and the GI50 (HBC-4) was 16.6 µM. The GI50 (MKN45) was 14 µM, the GI50 (MKN74) was 13 µM and the GI50 (PC-3) was 11.1 µM. For the same molecule, the GI50 (KM-12) was 14.5 µM, the GI50 (RXF-631L) was 14.4 µM and the GI50 (NCI-H226) was 14 µM. It also gave a GI50 (A549) of 12.3 µM, a GI50 (MKN-A) of 0.408 µM and a GI50 (HCT-116) of 0.953 µM. For the same molecule, the “MFE (%) ave” value (MCF-7 cells; mean of 3, control 0.87) was 0.65%, the “MFE (control = 1) ave” value (MCF-7 cells; relative to control = 1) was 0.75 and the “MFE (%)” value (MCF-7 cells; single replicates) was 0.66% and 0.68% and 0.60%.
